Test results published in PMC8741506 (Poultry Science, 2021).

Target: T1, IBV PLpro (Avian infectious bronchitis virus (strain M41), UniProt P0C6Y3)
Test: UB-AMC deubiquitination, fluorescence kinetics
Assay type: biochemical
Conditions: read-out: relative enzymatic activity at 100 μM

T1 sequence (P0C6Y3 1177-1499): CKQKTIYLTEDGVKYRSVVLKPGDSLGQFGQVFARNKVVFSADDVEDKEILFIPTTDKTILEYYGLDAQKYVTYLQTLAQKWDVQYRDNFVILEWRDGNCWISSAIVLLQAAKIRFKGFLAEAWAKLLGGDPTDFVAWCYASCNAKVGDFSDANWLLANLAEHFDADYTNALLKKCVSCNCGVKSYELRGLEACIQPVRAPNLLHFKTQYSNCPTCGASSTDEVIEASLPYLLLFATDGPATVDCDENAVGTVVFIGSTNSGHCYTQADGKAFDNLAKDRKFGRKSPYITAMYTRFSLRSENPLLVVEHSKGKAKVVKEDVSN

Row | Compound | activity at 100 µM
1 | C[C@@H]1O[C@@H](O[C@H]2[C@H](Oc3cc(O)c4c(c3)O[C@H](c3ccc(O)cc3)CC4=O)O[C@H](CO)[C@@H](O)[C@@H]2O)[C@H](O)[C@H](O)[C@H]1O [naringin] | < 20%
2 | COc1ccc(-c2oc3c(CC=C(C)C)c(O[C@@H]4O[C@H](CO)[C@@H](O)[C@H](O)[C@H]4O)cc(O)c3c(=O)c2O[C@@H]2O[C@@H](C)[C@H](O)[C@@H](O)[C@H]2O)cc1 [icariin] | < 20%
3 | O=c1cc(-c2ccccc2)oc2cc(O)cc(O)c12 [chrysin] | < 20%
4 | O=c1cc(-c2ccccc2)oc2cc(O)c(O)c(O)c12 [baicalein] | < 20%
5 | O=c1c2cc(O)c(O)cc2oc2cc(O)c([C@@H]3O[C@H](CO)[C@@H](O)[C@H](O)[C@H]3O)c(O)c12 [mangiferin] | < 20%

Target: T1, IBV PLpro
Test: UB-AMC deubiquitination, fluorescence kinetics
Assay type: biochemical
Conditions: not given

Row | Compound | IC50
6 | O=c1c(O)c(-c2cc(O)c(O)c(O)c2)oc2cc(O)cc(O)c12 [myricetin] | 10.6 µM
